Measurements taken from patent US20260035384A1, “COMPOUND CONTAINING CYCLOHEXYL” (CHIA TAI TIANQING PHARMACEUTICAL GROUP CO., LTD., priority 2022, published 2026).
Where two headings read alike, the source gives them in different places.

Assays:
LNCaP cells = test: Assay on inhibitory activity for LNCaP cell proliferation (CCK-8); format: cell-based; details: 168 h incubation
Method: (§1) LNCaP cells in a good growth state were taken, washed with PBS, digested with pancreatin, and added with 2% CSS—FBS phenol red-free 1640 complete medium to terminate the digestion. The cells were collected by using a centrifuge tube, adjusted to a cell density of 1×10^5 cells/mL, and seeded in a 96-well plate (100 μL/well). Meanwhile, compounds were added using a nanoliter pipettor such that the final concentrations of the compounds were 10000 nM-0.61 nM. Two duplicate wells were set for each concentration, and meanwhile, a control was set. After another 168 h of incubation in the cell incubator, the detection reagent CCK-8 (manufacturer: Dojindo, 10 μL/well) was added.

AR in LNCaP cells = biological target: T1, AR in LNCaP cells (Homo sapiens, UniProt P10275, T878A); test: Assay on degradation activity for AR in LNCaP cells (HTRF human androgen receptor detection kit); format: cell-based; details: 24 h incubation; for DC50: HTRF; for Dmax: maximum degradation rate
T1 construct: Assay on Degradation Activity for AR in LNCaP Cells; endogenous in cells; host or cells: LNCaP cells
T1 sequence (P10275 1-920 T878A): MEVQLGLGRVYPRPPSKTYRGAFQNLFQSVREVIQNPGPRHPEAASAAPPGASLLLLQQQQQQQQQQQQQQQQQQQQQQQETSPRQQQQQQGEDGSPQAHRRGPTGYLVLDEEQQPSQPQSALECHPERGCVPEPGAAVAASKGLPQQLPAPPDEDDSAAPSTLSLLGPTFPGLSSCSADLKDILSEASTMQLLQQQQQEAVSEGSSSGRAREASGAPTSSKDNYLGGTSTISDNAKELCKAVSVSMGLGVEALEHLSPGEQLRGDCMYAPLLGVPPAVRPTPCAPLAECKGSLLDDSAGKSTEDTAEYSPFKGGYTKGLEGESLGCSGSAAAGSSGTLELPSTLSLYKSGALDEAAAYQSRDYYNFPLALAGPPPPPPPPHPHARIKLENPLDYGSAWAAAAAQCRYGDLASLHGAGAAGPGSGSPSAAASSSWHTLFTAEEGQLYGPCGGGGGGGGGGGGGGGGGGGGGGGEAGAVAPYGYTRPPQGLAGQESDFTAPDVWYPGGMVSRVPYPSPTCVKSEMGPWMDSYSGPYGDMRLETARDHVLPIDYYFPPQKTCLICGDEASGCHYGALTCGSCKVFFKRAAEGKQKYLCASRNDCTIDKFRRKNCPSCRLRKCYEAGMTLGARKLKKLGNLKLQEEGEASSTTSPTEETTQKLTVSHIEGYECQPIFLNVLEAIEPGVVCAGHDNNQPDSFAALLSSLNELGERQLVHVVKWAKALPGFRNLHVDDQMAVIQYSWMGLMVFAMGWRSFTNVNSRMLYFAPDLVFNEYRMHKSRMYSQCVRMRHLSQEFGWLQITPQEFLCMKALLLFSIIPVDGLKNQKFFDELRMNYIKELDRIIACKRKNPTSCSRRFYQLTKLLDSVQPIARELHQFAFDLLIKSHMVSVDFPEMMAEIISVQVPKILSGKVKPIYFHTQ
Method: The detection was carried out using the HTRF HUMAN ANDROGEN RECEPTOR DETECTION KIT (cisbio, 64ANDRPEG), 4× Supplemented Lysis buffer was prepared using the Blocking reagent stock solution (100×) and Lysis buffer stock solution (4×), and 1× Supplemented Lysis buffer was prepared using the 4× Supplemented Lysis buffer and ddH2O. Premixed antibody solutions were prepared using Detection buffer, Androgen Receptor Eu Cryptate antibody, and Androgen Receptor d2 antibody.
LNCaP cells in a good growth state were taken, washed with PBS, digested with pancreatin, and added with 2% CSS—FBS phenol red-free 1640 complete medium to terminate the digestion. The cells were collected by using a centrifuge tube, adjusted to a cell density of 1×10^6 cells/mL, and seeded in a 96-well plate (100 μL/well). The cells were incubated overnight in a cell incubator. Compounds were added using a nanoliter pipettor such that the final concentrations of the compounds were 500 nM-0.488 nM. Two duplicate wells were set for each concentration, and meanwhile, a control was set. After another 24 h of incubation in the cell incubator, the medium was pipetted out, the 1× Supplemented Lysis buffer was added at 40 μL/well to lyse the cells. After the cells were oscillated for 40 min at room temperature, 16 μL of the cell lysate was added to a 384-well plate, the Premixed antibody solutions were added at 4 μL/well, and the mixture was left to stand at 25° C. for 2 h. Fluorescence values were detected at 665 nm/620 nm using an Envision microplate reader, the four-parameter analysis was performed, the dose-response curves were fit, and DC50 (the concentration of the drug when the degradation rate reaches 50%) and Dmax (the maximum degradation rate) were calculated.

Mouse pharmacokinetics = format: in vivo, ICR mice; details: ICR, mouse, plasma; for AUC: read-out: AUC
Method: ICR mice weighing 18-22 g were randomized into groups of 9 after 3-5 days of acclimatization, and then intragastrically given the test compound solution at a dose of 10 mg/kg and intravenously injected with the test compound solution at a dose of 1 mg/kg.
Blood sampling time points for the intragastrical administration group were 15 min, 0.5 h, 1 h, 2 h, 3 h, 4 h, 6 h, 8 h, 10 h, and 24 h, and blood sampling time points for the intravenous injection administration group were […], 15 min, 0.5 h, 1 h, 2 h, 4 h, 6 h, 8 h, 10 h, and 24 h; blood was collected from the orbit to prepare plasma samples to be tested. 30 μL of each of the plasma samples to be tested and a standard curve sample were taken, and an acetonitrile solution containing an internal standard was added. Supernatants were obtained by protein precipitation, diluted, and then assayed by LC/MS/MS. Pharmacokinetic parameters were fitted using a non-compartmental model (see Table 6).

VCaP cells = test: Assay on inhibitory activity for VCaP cell proliferation (CCK-8); format: cell-based; details: 168 h incubation
Method: as §1, with “2.1 Assay on inhibitory activity for VCaP cell proliferation VCaP” for “LNCaP”, “5%” for “2%”, “DMEM” for “1640”

[1] = po, 10 mg/kg, Mouse i.g. 10 mpk

Row | SMILES | IC50 (LNCaP cells; Homo sapiens) | IC50 (VCaP cells; Homo sapiens, VCaP, 168 h) | further results
1 | N#Cc1ccc(O[C@H]2CC[C@H](NC(=O)c3ccc(N4CCC(CN5CCc6c(ccc7c(C8CCC(=O)NC8=O)noc67)C5)CC4)nn3)CC2)cc1Cl (stereo partly shown) [Compound 19] | < 1000 nM |  | DC50 (AR in LNCaP cells): ≤ 20 nM; Dmax (AR in LNCaP cells): > 80%; clearance (Mouse pharmacokinetics; iv, 1 mg/kg, Mouse i.v. 1 mpk): 5.7 mL/min/kg; half-life (Mouse pharmacokinetics; iv, 1 mg/kg, Mouse i.v. 1 mpk): 7.4 h; AUC (Mouse pharmacokinetics; iv, 1 mg/kg, Mouse i.v. 1 mpk): 2600 ng·h/mL; half-life (Mouse pharmacokinetics; [1]): 49.9 h; bioavailability (Mouse pharmacokinetics; po, 10 mg/kg, Mouse i.g. 10 mpk vs i.v. 1 mpk): 41.6%; AUC (Mouse pharmacokinetics; [1]): 10800 ng·h/mL; Cmax (Mouse pharmacokinetics; po, 10 mg/kg, Mouse i.g. 10 mpk, read-out: Cmax): 562 ng/mL
2 | N#Cc1ccc(O[C@H]2CC[C@H](NC(=O)c3ccc(N4CCC(CN5CCc6ccc7c(C8CCC(=O)NC8=O)noc7c6CC5)CC4)nn3)CC2)cc1Cl (stereo partly shown) [Compound 20] | < 1000 nM |  | DC50 (AR in LNCaP cells): ≤ 20 nM; Dmax (AR in LNCaP cells): > 80%
3 | N#Cc1ccc(O[C@H]2CC[C@H](NC(=O)c3ccc(N4CCC5(CC4)CC(CN4CCc6ccc7c(C8CCC(=O)NC8=O)noc7c6C4)C5)nn3)CC2)cc1Cl (stereo partly shown) [Compound 35] | < 1000 nM |  | DC50 (AR in LNCaP cells): ≤ 20 nM; Dmax (AR in LNCaP cells): > 80%; IC50 (VCaP cells; Homo sapiens): < 100 nM
4 | N#Cc1ccc(O[C@H]2CC[C@H](NC(=O)c3cnc(N4CCC(CN5CCc6c(ccc7c(C8CCC(=O)NC8=O)noc67)C5)CC4)nc3)CC2)cc1Cl (stereo partly shown) [Compound 121] | < 1000 nM | < 10 nM | 
5 | N#Cc1ccc(O[C@H]2CC[C@H](NC(=O)c3cnc(N4CCC(CN5CCc6ccc7c(C8CCC(=O)NC8=O)noc7c6CC5)CC4)nc3)CC2)cc1Cl (stereo partly shown) [Compound 122] | < 1000 nM | < 100 nM | DC50 (AR in LNCaP cells): ≤ 20 nM; Dmax (AR in LNCaP cells): > 80%
6 | N#Cc1ccc(O[C@H]2CC[C@H](NC(=O)c3cnc(N4CCN(CC5Cc6ccc7c(C8CCC(=O)NC8=O)noc7c6C5)CC4)nc3)CC2)cc1Cl (stereo partly shown) [Compound 123] | < 1000 nM | < 1000 nM | 
7 | N#Cc1ccc(O[C@H]2CC[C@H](NC(=O)c3cnc(N4CCC5(CC4)CC(CN4Cc6ccc7c(C8CCC(=O)NC8=O)noc7c6C4)C5)nc3)CC2)cc1Cl (stereo partly shown) [Compound 128] | < 1000 nM | < 100 nM | 
8 | N#Cc1ccc(O[C@H]2CC[C@H](NC(=O)c3cnc(N4CCC5(CC4)CC(CN4CCc6ccc7c(C8CCC(=O)NC8=O)noc7c6C4)C5)nc3)CC2)cc1Cl (stereo partly shown) [Compound 129] | < 1000 nM | < 100 nM | 
9 | N#Cc1ccc(O[C@H]2CC[C@H](NC(=O)c3cnc(N4CCC5(CC4)CC(CN4CCc6c(ccc7c(C8CCC(=O)NC8=O)noc67)C4)C5)nc3)CC2)cc1Cl (stereo partly shown) [Compound 130] | < 1000 nM | < 100 nM | 
10 | N#Cc1ccc(O[C@H]2CC[C@H](NC(=O)c3cnc(N4CCC5(CC4)CC(CN4CCc6ccc7c(C8CCC(=O)NC8=O)noc7c6CC4)C5)nc3)CC2)cc1Cl (stereo partly shown) [Compound 131] | < 1000 nM | < 100 nM | 
11 | N#Cc1ccc(O[C@H]2CC[C@H](NC(=O)c3cnc(N4CCC(CN5Cc6ccc7c(C8CCC(=O)NC8=O)coc7c6C5)CC4)nc3)CC2)cc1Cl (stereo partly shown) [Compound 132] | < 1000 nM | < 1000 nM | 
12 | N#Cc1ccc(O[C@H]2CC[C@H](NC(=O)c3cnc(N4CCC(CN5CCc6ccc7c(C8CCC(=O)NC8=O)coc7c6C5)CC4)nc3)CC2)cc1Cl (stereo partly shown) [Compound 133] | < 1000 nM | < 1000 nM | 
13 | N#Cc1ccc(O[C@H]2CC[C@H](NC(=O)c3cnc(N4CCC(CN5CCc6c(ccc7c(C8CCC(=O)NC8=O)coc67)C5)CC4)nc3)CC2)cc1Cl (stereo partly shown) [Compound 134] | < 1000 nM | < 100 nM | 
14 | N#Cc1ccc(O[C@H]2CC[C@H](NC(=O)c3cnc(N4CCN(CC5Cc6ccc7c(C8CCC(=O)NC8=O)coc7c6C5)CC4)nc3)CC2)cc1Cl (stereo partly shown) [Compound 136] | < 1000 nM | < 1000 nM | 
15 | N#Cc1ccc(O[C@H]2CC[C@H](NC(=O)c3cnc(N4CCN(CC5Cc6ccc7c(C8CCC(=O)NC8=O)coc7c6C5)CC4)nc3)CC2)cc1Cl (stereo partly shown) [Compound 137] |  |  | IC50 (LNCaP cells): < 1000 nM; IC50 (VCaP cells): < 1000 nM
16 | N#Cc1ccc(O[C@H]2CC[C@H](NC(=O)c3cnc(N4CCC(CN5CCc6ccc7c(N8CCC(=O)NC8=O)coc7c6C5)CC4)nc3)CC2)cc1Cl [Compound 139] | < 1000 nM | < 1000 nM | 
17 | N#Cc1ccc(O[C@H]2CC[C@H](NC(=O)c3cnc(N4CC(CN5CCc6c(ccc7c(C8CCC(=O)NC8=O)noc67)C5)C4)nc3)CC2)cc1Cl (stereo partly shown) [Compound 142] | < 1000 nM | < 1000 nM | 
18 | N#Cc1ccc(O[C@H]2CC[C@H](NC(=O)c3ncc(N4CCC(CN5CCc6c(ccc7c(C8CCC(=O)NC8=O)noc67)C5)CC4)cn3)CC2)cc1Cl (stereo partly shown) [Compound 146] | < 1000 nM | < 1000 nM | 
